pIC50: −log10 of the molar value.
These compounds were tested against GDP-loaded KRAS G12D (Homo sapiens, UniProt P01116, G12D) (assay: KRAS G12D Probe Displacement Assay). Conditions: KRAS G12D 0.5 nM, biotinylated probe 2 4 nM; Table 6 letters; read-out: KRAS G12D Probe Displacement Assay IC50 (class).
Format: binding

GDP-loaded KRAS G12D, sequence (P01116 1-188 isoform P01116-2 G12D): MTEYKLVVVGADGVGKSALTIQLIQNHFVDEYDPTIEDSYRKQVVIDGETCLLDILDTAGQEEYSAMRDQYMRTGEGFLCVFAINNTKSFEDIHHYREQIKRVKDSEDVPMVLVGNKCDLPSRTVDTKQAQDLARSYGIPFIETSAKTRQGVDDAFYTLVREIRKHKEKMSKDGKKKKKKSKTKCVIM

| Compound | pIC50 |
| --- | --- |
| Nc1nc2c(-c3c(C(F)(F)F)cc4c(N5CC6CCC(C5)N6)nc(OCC5CCOC5)nc4c3F)ccc(F)c2s1 (stereo not shown) [Example E145, 4-(4-(3,8-diazabicyclo[3.2.1]octan-3-yl)-8-fluoro-2-((tetrahydrofuran-3-yl)methoxy)-6-(trifluoromethyl)quinazolin-7-yl)-7-fluorobenzo [d]thiazol-2-amine] | > 7.30 |
| Nc1nc2c(-c3c(C(F)(F)F)cc4c(N5CC6CCC(C5)N6)nc(OCC5CCCCO5)nc4c3F)ccc(F)c2s1 (stereo not shown) [Example E146, 4-(4-(3,8-diazabicyclo[3.2.1]octan-3-yl)-8-fluoro-2-((tetrahydro-2H-pyran-2-yl)methoxy)-6-(trifluoromethyl)quinazolin-7-yl)-7-fluorobenzo[d]thiazol-2-amine] | > 7.30 |
| N#CC1(COc2nc(N3CC4CCC(C3)N4)c3cc(C(F)(F)F)c(-c4ccc(F)c5sc(N)nc45)c(F)c3n2)CC1 [Example E147, 1-(((7-(2-amino-7-fluorobenzo[d]thiazol-4-yl)-4-(3,8-diazabicyclo [3.2.1]octan-3-yl)-8-fluoro-6-(trifluoromethyl)quinazolin-2-yl)oxy)methyl)cyclopropane-1-carbonitrile] | > 7.30 |
| Nc1nc2c(-c3c(C(F)(F)F)cc4c(N5CC6CCC(C5)N6)nc(OC5CS(=O)(=O)C5)nc4c3F)ccc(F)c2s1 [Example E148, 3-((7-(2-amino-7-fluorobenzo[d]thiazol-4-yl)-4-(3,8-diazabicyclo [3.2.1]octan-3-yl)-8-fluoro-6-(trifluoromethyl)quinazolin-2-yl)oxy)thietane 1,1-dioxide] | > 7.30 |
| Nc1nc2c(-c3c(C(F)(F)F)cc4c(N5CC6CCC(C5)N6)nc(OCC5(CO)CC5)nc4c3F)ccc(F)c2s1 [Example E149, (1-(((7-(2-amino-7-fluorobenzo[d]thiazol-4-yl)-4-(3,8-diazabicyclo[3.2.1]octan-3-yl)-8-fluoro-6-(trifluoromethyl)quinazolin-2-yl)oxy)methyl)cyclopropyl) methanol] | > 7.30 |
| COC1CC(COc2nc(N3CC4CCC(C3)N4)c3cc(C(F)(F)F)c(-c4ccc(F)c5sc(N)nc45)c(F)c3n2)C1 (stereo not shown) [Example E150, 4-(4-(3,8-diazabicyclo[3.2.1]octan-3-yl)-8-fluoro-2-((3-methoxycyclobutyl)methoxy)-6-(trifluoromethyl)quinazolin-7-yl)-7-fluorobenzo[d]thiazol-2-amine] | > 7.30 |
| N#CC1(F)CC(Oc2nc(N3CC4CCC(C3)N4)c3cc(C(F)(F)F)c(-c4ccc(F)c5sc(N)nc45)c(F)c3n2)C1 (stereo not shown) [Example E151, 3-((7-(2-amino-7-fluorobenzo[d]thiazol-4-yl)-4-(3,8-diazabicyclo[3.2.1]octan-3-yl)-8-fluoro-6-(trifluoromethyl)quinazolin-2-yl)oxy)-1-fluorocyclo butane-1-carbonitrile] | > 7.30 |
| Nc1nc2c(-c3c(C(F)(F)F)cc4c(N5CC6CCC(C5)N6)nc(OCC56COC(C5)C6)nc4c3F)ccc(F)c2s1 [Example E152, 4-(2-((2-oxabicyclo[2.1.1]hexan-4-yl)methoxy)-4-(3,8-diazabicyclo[3.2.1]octan-3-yl)-8-fluoro-6-(trifluoromethyl)quinazolin-7-yl)-7-fluorobenzo[d] thiazol-2-amine] | > 7.30 |
| Nc1nc2c(-c3c(C(F)(F)F)cc4c(N5CC6CCC(C5)N6)nc(OCC(F)(F)CO)nc4c3F)ccc(F)c2s1 [Example E153, 3-((7-(2-amino-7-fluorobenzo[d]thiazol-4-yl)-4-(3,8-diazabicyclo [3.2.1]octan-3-yl)-8-fluoro-6-(trifluoromethyl)quinazolin-2-yl)oxy)-2,2-difluoropropan-1-ol] | > 7.30 |
| Nc1nc2c(-c3c(C(F)(F)F)cc4c(N5CC6CCC(C5)N6)nc(OCC5(CO)CCC5)nc4c3F)ccc(F)c2s1 [Example E154, (1-(((7-(2-amino-7-fluorobenzo[d]thiazol-4-yl)-4-(3,8-diazabicyclo[3.2.1]octan-3-yl)-8-fluoro-6-(trifluoromethyl)quinazolin-2-yl)oxy)methyl)cyclobutyl) methanol] | > 7.30 |
| N#CC1(CCOc2nc(N3CC4CCC(C3)N4)c3cc(C(F)(F)F)c(-c4ccc(F)c5sc(N)nc45)c(F)c3n2)CC1 [Example E155] | > 7.30 |
| COC1(COc2nc(N3CC4CCC(C3)N4)c3cc(C(F)(F)F)c(-c4ccc(F)c5sc(N)nc45)c(F)c3n2)CC1 [Example E156] | > 7.30 |
| N#CC1(COc2nc(N3CC4CCC(C3)N4)c3cc(C(F)(F)F)c(-c4ccc(F)c5sc(N)nc45)c(F)c3n2)CCCCC1 [Example E157, 1-(((7-(2-amino-7-fluorobenzo[d]thiazol-4-yl)-4-(3,8-diazabicyclo [3.2.1]octan-3-yl)-8-fluoro-6-(trifluoromethyl)quinazolin-2-yl)oxy)methyl)cyclohexane-1-carbonitrile] | > 7.30 |
| Nc1nc2c(-c3c(C(F)(F)F)cc4c(N5CC6CCC(C5)N6)nc(OCC5(CO)CC(F)C5)nc4c3F)ccc(F)c2s1 (stereo not shown) [Example E158, (1-(((7-(2-amino-7-fluorobenzo[d]thiazol-4-yl)-4-(3,8-diazabicyclo[3.2.1]octan-3-yl)-8-fluoro-6-(trifluoromethyl)quinazolin-2-yl)oxy)methyl)-3-fluorocyclobutyl)methanol] | > 7.30 |
| Nc1nc2c(-c3c(C(F)(F)F)cc4c(N5CC6CCC(C5)N6)nc(OC5CCOCC5F)nc4c3F)ccc(F)c2s1 (stereo not shown) [Example E159, 4-(4-(3,8-diazabicyclo[3.2.1]octan-3-yl)-8-fluoro-2-((3-fluorotetra hydro-2H-pyran-4-yl)oxy)-6-(trifluoromethyl)quinazolin-7-yl)-7-fluorobenzo[d]thiazol-2-amine] | > 7.30 |
| Nc1nc2c(-c3c(C(F)(F)F)cc4c(N5CC6CCC(C5)N6)nc(OC5CCS(=O)(=O)CC5)nc4c3F)ccc(F)c2s1 [Example E160] | > 7.30 |
| Nc1nc2c(-c3c(C(F)(F)F)cc4c(N5CC6CCC(C5)N6)nc(OCCCC5COC5)nc4c3F)ccc(F)c2s1 [Example E161] | > 7.30 |
| Nc1nc2c(-c3c(C(F)(F)F)cc4c(N5CC6CCC(C5)N6)nc(OCC56CC(CO)(C5)C6)nc4c3F)ccc(F)c2s1 [Example E162, (3-(((7-(2-amino-7-fluorobenzo[d]thiazol-4-yl)-4-(3,8-diazabicyclo[3.2.1]octan-3-yl)-8-fluoro-6-(trifluoromethyl)quinazolin-2-yl)oxy)methyl)bicyclo[1.1.1]pentan-1-yl)methanol] | > 7.30 |
| Nc1nc2c(-c3c(C(F)(F)F)cc4c(N5CC6CCC(C5)N6)nc(OCC5CC6CCC(C5)O6)nc4c3F)ccc(F)c2s1 (stereo not shown) [Example E163, 4-(2-((8-oxabicyclo[3.2.1]octan-3-yl)methoxy)-4-(3,8-diazabicyclo[3.2.1]octan-3-yl)-8-fluoro-6-(trifluoromethyl)quinazolin-7-yl)-7-fluorobenzo[d]thiazol-2-amine] | > 7.30 |
| CC(=O)N1CC(COc2nc(N3CC4CCC(C3)N4)c3cc(C(F)(F)F)c(-c4ccc(F)c5sc(N)nc45)c(F)c3n2)C1 [Example E164, 1-(3-(((7-(2-amino-7-fluorobenzo[d]thiazol-4-yl)-4-(3,8-diazabicyclo[3.2.1]octan-3-yl)-8-fluoro-6-(trifluoromethyl)quinazolin-2-yl)oxy)methyl)azetidin-1-yl)ethan-1-one] | > 7.30 |
| Nc1nc2c(-c3c(C(F)(F)F)cc4c(N5CC6CCC(C5)N6)nc(OCC56CCC(CC5)OC6)nc4c3F)ccc(F)c2s1 [Example E165, 4-(2-((2-oxabicyclo[2.2.2]octan-4-yl)methoxy)-4-(3,8-diazabicyclo[3.2.1]octan-3-yl)-8-fluoro-6-(trifluoromethyl)quinazolin-7-yl)-7-fluorobenzo[d]thiazol-2-amine] | > 7.30 |
| CC1(COc2nc(N3CC4CCC(C3)N4)c3cc(C(F)(F)F)c(-c4ccc(F)c5sc(N)nc45)c(F)c3n2)CCO1 (stereo not shown) [Example E166, 4-(4-(3,8-diazabicyclo[3.2.1]octan-3-yl)-8-fluoro-2-((2-methyloxetan-2-yl)methoxy)-6-(trifluoromethyl)quinazolin-7-yl)-7-fluorobenzo[d]thiazol-2-amine] | > 7.30 |
| COC1CC(Oc2nc(N3CC4CCC(C3)N4)c3cc(C(F)(F)F)c(-c4ccc(F)c5sc(N)nc45)c(F)c3n2)C1 (stereo not shown) [Example E167, 4-(4-(3,8-diazabicyclo[3.2.1]octan-3-yl)-8-fluoro-2-(3-methoxycyclobutoxy)-6-(trifluoromethyl)quinazolin-7-yl)-7-fluorobenzo[d]thiazol-2-amine] | 7.00 to 7.30 |
| CO[C@@H]1CC[C@H]1COc1nc(N2CC3CCC(C2)N3)c2cc(C(F)(F)F)c(-c3ccc(F)c4sc(N)nc34)c(F)c2n1 [Example E168, 4-(4-(3,8-diazabicyclo[3.2.1]octan-3-yl)-8-fluoro-2-(((1S,2R)-2-methoxycyclobutyl)methoxy)-6-(trifluoromethyl)quinazolin-7-yl)-7-fluorobenzo[d]thiazol-2-amine] | > 7.30 |
| COCC(CO)(COc1nc(N2CC3CCC(C2)N3)c2cc(C(F)(F)F)c(-c3ccc(F)c4sc(N)nc34)c(F)c2n1)OC (stereo not shown) [Example E169, 3-((7-(2-amino-7-fluorobenzo[d]thiazol-4-yl)-4-(3,8-diazabicyclo [3.2.1]octan-3-yl)-8-fluoro-6-(trifluoromethyl)quinazolin-2-yl)oxy)-2-methoxy-2-(methoxymethyl)propan-1-ol] | > 7.30 |
| Nc1nc2c(-c3c(C(F)(F)F)cc4c(N5CC6CCC(C5)N6)nc(OCC5COC(=O)N5)nc4c3F)ccc(F)c2s1 (stereo not shown) [Example E170, 4-(((7-(2-amino-7-fluorobenzo[d]thiazol-4-yl)-4-(3,8-diazabicyclo [3.2.1]octan-3-yl)-8-fluoro-6-(trifluoromethyl)quinazolin-2-yl)oxy)methyl)oxazolidin-2-one] | > 7.30 |
| Nc1nc2c(-c3c(C(F)(F)F)cc4c(N5CC6CCC(C5)N6)nc(OCC5CS(=O)(=O)C5)nc4c3F)ccc(F)c2s1 [Example E171] | > 7.30 |
| Nc1nc2c(-c3c(C(F)(F)F)cc4c(N5CC6CCC(C5)N6)nc(OCCC5(CCO)COC5)nc4c3F)ccc(F)c2s1 [Example E172, 2-(3-(2-((7-(2-amino-7-fluorobenzo[d]thiazol-4-yl)-4-(3,8-diazabicyclo[3.2.1]octan-3-yl)-8-fluoro-6-(trifluoromethyl)quinazolin-2-yl)oxy)ethyl)oxetan-3-yl) ethan-1-ol] | > 7.30 |
